# Source: US7420056B2, “Substituted bicyclic imidazo-3-ylamine compounds” (Gruenenthal GmbH, priority 2004, dated 2008)
# Molecular target: mGluR5 receptor (Sus scrofa, UniProt I3LUI7)
# Assay: Affinity for the mGluR5 receptor: inhibition of 3[H]-MPEP binding in pig brain homogenate
# Settings: for inhibition at 10 µM: 10 μM compound, 5 nM 3[H]-MPEP, read-out: mGluR5 receptor inhibition of ^3[H]-MPEP binding [10 μM] in % at a concentration of the example compounds of 10 μM; for IC50: 3[H]-MPEP binding
# Experimental: 1. Method for Determining Affinity for the mGluR5 Receptor
# Pig brain homogenate is produced by homogenisation (Polytron Pt 3000, Kinematica AG, 10,000 revolutions per minute for 90 seconds) of pig brain hemispheres without medulla, cerebellum and pons in a buffer of pH 8.0 (30 mM Hepes, Sigma, order number H3375+1 tablet Complete Roche Diagnostics, order number 1836145 made up to 100 ml) in a ratio of 1:20 (brain weight/volume) and differential centrifugation at 900×g and 40,000×g. 450 μg of protein from brain homogenate is incubated in each case in 250 μl incubation batches in 96-well microtitre plates with 5 nM 3[H]-MPEP (Tocris, order number R1212) (MPEP=2-methyl-6-[…]) and the compounds to be investigated (10 μM in the test) in the buffer (as above) at room temperature for 60 minutes.
# The batches are then filtered with the assistance of a Brandel Cell Harvester (Brandel, Grade Robotic 9600) on Unifilter plates with glass filter mats (Perkin Elmer, order number 6005177) and then washed 3 times with buffer (as above) using 250 μl per sample. The filter plates are then dried for 60 minutes at 55° C. Then 30 μl of Ultima Gold™ scintillating material (Packard BioScience, order number 6013159) is added per well and after 3 hours the samples are measured using the β counter (Microbeta, Perkin Elmer). Nonspecific binding is determined by the addition of 10 μM MPEP (Tocris, order number 1212).
# Sequence of mGluR5 receptor (I3LUI7 19-1212): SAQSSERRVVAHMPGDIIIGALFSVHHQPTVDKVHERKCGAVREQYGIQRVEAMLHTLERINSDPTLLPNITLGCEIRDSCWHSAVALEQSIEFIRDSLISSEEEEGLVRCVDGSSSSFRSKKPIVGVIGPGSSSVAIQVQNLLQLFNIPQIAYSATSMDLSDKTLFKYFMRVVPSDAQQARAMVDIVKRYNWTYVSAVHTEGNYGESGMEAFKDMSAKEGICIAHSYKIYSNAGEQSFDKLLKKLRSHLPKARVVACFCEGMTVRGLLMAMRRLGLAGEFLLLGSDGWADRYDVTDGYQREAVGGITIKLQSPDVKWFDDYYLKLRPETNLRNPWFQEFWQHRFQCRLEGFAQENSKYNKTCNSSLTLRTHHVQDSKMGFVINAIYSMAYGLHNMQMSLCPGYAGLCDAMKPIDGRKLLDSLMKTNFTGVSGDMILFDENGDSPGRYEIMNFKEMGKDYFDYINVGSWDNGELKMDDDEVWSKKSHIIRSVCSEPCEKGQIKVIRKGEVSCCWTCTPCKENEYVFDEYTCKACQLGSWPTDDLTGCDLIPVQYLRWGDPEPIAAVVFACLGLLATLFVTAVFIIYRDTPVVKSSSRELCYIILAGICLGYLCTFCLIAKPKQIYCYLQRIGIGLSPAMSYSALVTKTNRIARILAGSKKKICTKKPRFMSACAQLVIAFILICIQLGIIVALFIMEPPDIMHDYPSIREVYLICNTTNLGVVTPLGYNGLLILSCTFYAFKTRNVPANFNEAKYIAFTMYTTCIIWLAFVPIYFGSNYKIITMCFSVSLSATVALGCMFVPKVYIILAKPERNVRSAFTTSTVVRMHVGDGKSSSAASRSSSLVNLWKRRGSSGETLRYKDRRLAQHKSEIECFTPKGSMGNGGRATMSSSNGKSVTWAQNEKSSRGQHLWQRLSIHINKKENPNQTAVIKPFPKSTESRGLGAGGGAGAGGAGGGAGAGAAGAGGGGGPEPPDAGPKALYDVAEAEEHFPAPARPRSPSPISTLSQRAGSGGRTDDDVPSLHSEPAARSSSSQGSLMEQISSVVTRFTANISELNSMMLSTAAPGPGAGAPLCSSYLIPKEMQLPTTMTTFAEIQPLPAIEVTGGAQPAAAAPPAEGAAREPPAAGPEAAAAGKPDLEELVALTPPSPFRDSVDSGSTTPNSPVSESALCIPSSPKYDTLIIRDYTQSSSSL
Structure (SMILES),inhibition at 10 µM [%],IC50 [nM]
"COc1ccc(CNc2c(-c3ccc(C#Cc4ccccc4)s3)nc3nc(C)ccn23)cc1 [Example 34, (4-methoxy-benzyl)-[7-methyl-2-(5-phenylethynyl-thiophen-2-yl)-imidazo[1,2-a]pyrimidin-3-yl]-amine]",98,
"Cc1cccn2c(NC(C)c3ccccc3)c(-c3ccc(C#Cc4ccccc4)s3)nc12 (stereo not drawn) [Example 35, [8-methyl-2-(5-phenylethynyl-thiophen-2-yl)-imidazo[1,2-a]pyridin-3-yl]-(1-phenyl-ethyl)-amine]",95,
"Cc1ccn2c(NC(C)c3ccccc3)c(-c3ccc(C#Cc4ccccc4)s3)nc2n1 (stereo not drawn) [Example 36, [7-methyl-2-(5-phenylethynyl-thiophen-2-yl)-imidazo[1,2-a]pyrimidin-3-yl]-(1-phenyl-ethyl)-amine]",100,
"COc1ccccc1CNc1c(-c2ccc(C#Cc3ccccc3)s2)nc2cc(C)ccn12 [Example 37, (2-methoxy-benzyl)-[7-methyl-2-(5-phenylethynyl-thiophen-2-yl)-imidazo[1,2-a]pyridin-3-yl]-amine]",85,
"COc1ccccc1CNc1c(-c2ccc(C#Cc3ccccc3)s2)nc2ccccn12 [Example 38, (2-methoxy-benzyl)-[2-(5-phenylethynyl-thiophen-2-yl)-imidazo[1,2-a]pyridin-3-yl]-amine]",87,
"Clc1ccccc1CNc1c(-c2ccc(C#Cc3ccccc3)s2)nc2ccccn12 [Example 39, (2-chloro-benzyl)-[2-(5-phenylethynyl-thiophen-2-yl)-imidazo[1,2-a]pyridin-3-yl]-amine]",72,
"COc1ccccc1CNc1c(-c2ccc(C#Cc3ccccc3)s2)nc2nc(C)ccn12 [Example 40, (2-methoxy-benzyl)-[7-methyl-2-(5-phenylethynyl-thiophen-2-yl)-imidazo[1,2-a]pyrimidin-3-yl]-amine]",87,
"COc1cccc(Nc2c(-c3ccc(C#Cc4ccccc4)s3)nc3ccc(C)cn23)c1 [Example 41, (3-methoxy-phenyl)-[6-methyl-2-(5-phenylethynyl-thiophen-2-yl)-imidazo[1,2-a]pyridin-3-yl]-amine]",73,
"COc1cccc(Nc2c(-c3ccc(C#Cc4ccccc4)s3)nc3cc(C)cc(C)n23)c1 [Example 42, [5,7-dimethyl-2-(5-phenylethynyl-thiophen-2-yl)-imidazo[1,2-a]pyridin-3-yl]-(3-methoxy-phenyl)-amine]",93,
"COc1cccc(Nc2c(-c3ccc(C#Cc4ccccc4)s3)nc3cnccn23)c1 [Example 43, (3-methoxy-phenyl)-[2-(5-phenylethynyl-thiophen-2-yl)-imidazo[1,2-a]pyrazin-3-yl]-amine]",83,
"CCc1ccn2c(NCc3ccccc3OC)c(-c3ccc(C#Cc4ccccc4)s3)nc2c1 [Example 44, [7-ethyl-2-(5-phenylethynyl-thiophen-2-yl)-imidazo[1,2-a]pyridin-3-yl]-(2-methoxy-benzyl)-amine]",75,
"CCc1ccn2c(NCc3ccccc3Cl)c(-c3ccc(C#Cc4ccccc4)s3)nc2c1 [Example 45, (2-chloro-benzyl)-[7-ethyl-2-(5-phenylethynyl-thiophen-2-yl)-imidazo[1,2-a]pyridin-3-yl]-amine]",93,
"CC(C)(C)c1ccn2c(Nc3ccc(F)c(Cl)c3)c(-c3ccc(C#Cc4ccccc4)s3)nc2c1 [Example 46, [7-tert-butyl-2-(5-phenylethynyl-thiophen-2-yl)-imidazo[1,2-a]pyridin-3-yl]-(3-chloro-4-fluoro-phenyl)-amine]",76,
"COc1cccc(CNc2c(-c3ccc(C#Cc4ccccc4)s3)nc3nc(C)ccn23)c1 [Example 47, (3-methoxy-benzyl)-[7-methyl-2-(5-phenylethynyl-thiophen-2-yl)-imidazo[1,2-a]pyrimidin-3-yl]-amine]",79,
"CCc1ccn2c(Nc3ccccc3F)c(-c3ccc(C#Cc4ccccc4)s3)nc2c1 [Example 48, [7-ethyl-2-(5-phenylethynyl-thiophen-2-yl)-imidazo[1,2-a]pyridin-3-yl]-(2-fluoro-phenyl)-amine]",82,
"CC(C)(C)c1ccn2c(Nc3ccccc3F)c(-c3ccc(C#Cc4ccccc4)s3)nc2c1 [Example 49, [7-tert-butyl-2-(5-phenylethynyl-thiophen-2-yl)-imidazo[1,2-a]pyridin-3-yl]-(2-fluoro-phenyl)-amine]",85,
"Fc1ccc(Nc2c(-c3ccc(C#Cc4ccccc4)s3)nc3cc(CCCc4ccccc4)ccn23)c(F)c1 [Example 50, (2,4-difluoro-phenyl)-[2-(5-phenylethynyl-thiophen-2-yl)-7-(3-phenyl-propyl)-imidazo[1,2-a]pyridin-3-yl]-amine]",90,

# More lines, now with the values ahead:
inhibition at 10 µM [%],IC50 [nM],Structure (SMILES)
89,,"Cc1ccn2c(NCc3ccc(F)cc3)c(-c3ccc(C#Cc4ccccc4)s3)nc2c1 [Example 51, (4-fluoro-benzyl)-[7-methyl-2-(5-phenylethynyl-thiophen-2-yl)-imidazo[1,2-a]pyridin-3-yl]-amine]"
75,,"Cc1cc(C)n2c(NCc3ccc(F)cc3)c(-c3ccc(C#Cc4ccccc4)s3)nc2c1 [Example 52, [5,7-dimethyl-2-(5-phenylethynyl-thiophen-2-yl)-imidazo[1,2-a]pyridin-3-yl]-(4-fluoro-benzyl)-amine]"
80,,"CCc1ccn2c(NCc3cccc(C(F)(F)F)c3)c(-c3ccc(C#Cc4ccccc4)s3)nc2c1 [Example 53, [7-ethyl-2-(5-phenylethynyl-thiophen-2-yl)-imidazo[1,2-a]pyridin-3-yl]-(3-trifluoromethyl-benzyl)-amine]"
69,,"CC(C)c1ccn2c(NCc3cccc(C(F)(F)F)c3)c(-c3ccc(C#Cc4ccccc4)s3)nc2c1 [Example 54, [7-isopropyl-2-(5-phenylethynyl-thiophen-2-yl)-imidazo[1,2-a]pyridin-3-yl]-(3-trifluoromethyl-benzyl)-amine]"
77,,"CC(C)(C)Nc1c(-c2cc(C#Cc3ccccc3)cs2)nc2cnccn12 [Example 55, tert-butyl-[2-(4-phenylethynyl-thiophen-2-yl)-imidazo[1,2-a]pyrazin-3-yl]-amine]"
100,,"CC(C)(C)CC(C)(C)Nc1c(-c2ccc(C#Cc3ccccc3)s2)nc2cnccn12 [Example 56, [2-(5-phenylethynyl-thiophen-2-yl)-imidazo[1,2-a]pyrazin-3-yl]-(1,1,3,3-tetramethyl-butyl)-amine]"
94,,"CCCCNc1c(-c2cc(C#Cc3ccccc3)cs2)nc2cnccn12 [Example 57, butyl-[2-(4-phenylethynyl-thiophen-2-yl)-imidazo[1,2-a]pyrazin-3-yl]-amine]"
,2070,"CC(C)(C)CC(C)(C)Nc1c(-c2ccc(C#Cc3ccccc3)s2)nc2ccccn12 [Example 59, [2-(5-phenylethynyl-thiophen-2-yl)-imidazo[1,2-a]pyridin-3-yl]-(1,1,3,3-tetramethyl-butyl)-amine]"
,1200,"CC(C)(C)CC(C)(C)Nc1c(-c2ccc(C#Cc3cccnc3)s2)nc2cnccn12 [Example 60, [2-(5-Pyridin-3-ylethynyl-thiophen-2-yl)-imidazo[1,2-a]pyrazin-3-yl]-(1,1,3,3-tetramethyl-butyl)-amine]"
,42.5,"CC(C)(C)CC(C)(C)Nc1c(-c2ccc(C#Cc3ccncc3)s2)nc2cnccn12 [Example 61, [2-(5-pyridin-4-ylethynyl-thiophen-2-yl)-imidazo[1,2-a]pyrazin-3-yl]-(1,1,3,3-tetramethyl-butyl)-amine]"
26,,"CC(C)(C)CC(C)(C)Nc1c(-c2ccc(C#Cc3ccccc3)s2)nc2ccc(Cl)cn12 [Example 62, [6-chloro-2-(5-phenylethynyl-thiophen-2-yl)-imidazo[1,2-a]pyridin-3-yl]-(1,1,3,3-tetramethyl-butyl)-amine]"
65,,"CC(C)(C)CC(C)(C)Nc1c(-c2ccc(C#Cc3ccccc3)s2)nc2c(Cl)cc(Cl)cn12 [Example 63, [6,8-dichloro-2-(5-phenylethynyl-thiophen-2-yl)-imidazo[1,2-a]pyridin-3-yl]-(1,1,3,3-tetramethyl-butyl)-amine]"
,33,"CC(C)(C)CC(C)(C)Nc1c(-c2ccc(C#Cc3ccccn3)s2)nc2cnccn12 [Example 64, [2-(5-pyridin-2-ylethynyl-thiophen-2-yl)-imidazo[1,2-a]pyrazin-3-yl]-(1,1,3,3-tetramethyl-butyl)-amine]"
,3840,"CN(C)c1c(-c2ccc(C#Cc3ccccc3)s2)nc2cnccn12 [Example 65, dimethyl-[2-(5-phenylethynyl-thiophen-2-yl)-imidazo[1,2-a]pyrazin-3-yl]-amine]"
,3170,"CNc1c(-c2ccc(C#Cc3ccccc3)s2)nc2cnccn12 [Example 66, methyl-[2-(5-phenylethynyl-thiophen-2-yl)-imidazo[1,2-a]pyrazin-3-yl]-amine]"
,3840,"CC(=O)Nc1c(-c2ccc(C#Cc3ccccc3)s2)nc2cnccn12 [Example 67, N-[2-(5-phenylethynyl-thiophen-2-yl)-imidazo[1,2-a]pyrazin-3-yl]-acetamide]"
